Measurements reported in US4450269A, “Mono-5-substituted-3-chloro-4H-1,2,6-thiadiazin-4-one antifungal agents” (FMC Corporation, priority 1980, dated 1984).

How the values were obtained:
Rhizoctonia solani = experiment: Mycelial growth test; assay type: cell-based; settings: Rhizoctonia solani, 72 h, RS, read-out: Percent Fungus Growth Inhibition
Description: | RS = Rhizoctonia solani

Erysiphe polygoni [1] = experiment: Spore germination test; assay type: cell-based; settings: EP, 48 hours
In short: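 Compound was delivered in acetone into water agar at final 40, 10, 2.5 and 1 ppm. Alternaria solani and Botrytis cinerea spores were applied as sterile-water suspensions, while Erysiphe polygoni and Uromyces phaseoli spores were brushed on from infected leaves. After 48 h at 24° C., percentage germination was converted to a rating.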

Erysiphe polygoni [2] = experiment: whole plant or invertebrate; settings: foliar, 24 h, read-out: Percent Disease Control, curative, bean powdery mildew

SMILES	inhibition at 5 ppm (Rhizoctonia solani) [%]	inhibition at 10 ppm (Rhizoctonia solani) [%]	inhibition at 20 ppm (Rhizoctonia solani) [%]	inhibition at 40 ppm (Rhizoctonia solani) [%]	Spore Germination Rating (Erysiphe polygoni [1]; 1.0 ppm)	Spore Germination Rating (Erysiphe polygoni [1]; 2.5 ppm)	Spore Germination Rating (Erysiphe polygoni [1]; 10 ppm)	Spore Germination Rating (Erysiphe polygoni [1]; 40 ppm)	pest or weed control at 150 ppm (Erysiphe polygoni [2]) [%]
O=C(Nc1ccccc1)Oc1ccc(Oc2nsnc(Cl)c2=O)cc1 [Compound 37, 3-chloro-5-[4-(phenylaminocarbonyloxy)phenoxy]-4H-1,2,6,-thiadiazin-4-one]	11	42	31	51	4 (80-100)	4 (80-100)	4 (80-100)	3 (60-80)	0
O=C(OCc1ccccc1)Oc1ccc(Oc2nsnc(Cl)c2=O)cc1 [Compound 38, 3-chloro-5-[4-(phenylmethoxycarbonyloxy)phenoxyl]-4H-1,2,6-thiadiazin-4-one]	0	0	7	33	4 (80-100)	4 (80-100)	4 (80-100)	4 (80-100)	0
CSc1ccc(Oc2nsnc(Cl)c2=O)cc1 [Compound 39, 3-chloro-5-[(4-methylthio)phenoxy]-4H-1,2,6,-thiadiazin-4-one]	24	31	31	42	2 (40-60)	1 (10-40)	2 (40-60)	0 (0-10)	0
C[S+]([O-])c1ccc(Oc2nsnc(Cl)c2=O)cc1 (stereo not drawn) [Compound 40, 3-chloro-5-[(4-methylsulfinyl)phenoxy]-4H-1,2,6,-thiadiazin-4-one]	0	0	24	53	4 (80-100)	4 (80-100)	4 (80-100)	1 (10-40)	0
CS(=O)(=O)c1ccc(Oc2nsnc(Cl)c2=O)cc1 [Compound 41, 3-chloro-5-[(4-methylsulfonyl)phenoxy]-4H--1,2,6-thiadiazin-4-one]	0	0	51	64	2 (40-60)	2 (40-60)	1 (10-40)	0 (0-10)	0
CC(=O)Nc1cccc(Oc2nsnc(Cl)c2=O)c1 [Compound 42, 3-[(3-N--acetylamino)-phenoxy]-5-chloro-4H--1,2,6-thiadiazin-4-one]	0	4	31	67	4 (80-100)	4 (80-100)	4 (80-100)	4 (80-100)	0
CC(=O)Nc1ccccc1Oc1nsnc(Cl)c1=O [Compound 43, 3-[(2-acetylamino)-phenoxy]-5-chloro-4H--1,2,6-thiadiazin-4-one]	0	0	11	24	4 (80-100)	4 (80-100)	4 (80-100)	1 (10-40)	0
O=c1c(Cl)nsnc1Oc1cccc(C(F)(F)F)c1 [Compound 44, 3-chloro-5-[(3-trifluoromethyl)phenoxy]-4H--1,2,6-thiadiazin-4-one]	82	80	96	100	3 (60-80)	1 (10-40)	0 (0-10)	0 (0-10)	100
O=C(O)Cc1ccccc1Oc1nsnc(Cl)c1=O [Compound 45, 3-(2-carboxymethylphenoxy)-5-chloro-4H--1,2,6-thiadiazin-4-one]	0	0	13	42	4 (80-100)	4 (80-100)	4 (80-100)	2 (40-60)	0
N#CCc1ccc(Oc2nsnc(Cl)c2=O)cc1 [Compound 46, 3-chloro-5-[(4-cyanomethyl)-phenoxy]4H--1,2,6-thiadiazin-4-one]	27	56	64	100	4 (80-100)	4 (80-100)	4 (80-100)	4 (80-100)	0
CC(=O)c1ccc(Oc2nsnc(Cl)c2=O)cc1 [Compound 47, 3-(4-acetylphenoxy)-5-chloro-4H--1,2,6-thiadiazin-4-one]	58	47	69	78	4 (80-100)	4 (80-100)	4 (80-100)	1 (10-40)	0
CC(=O)c1cccc(Oc2nsnc(Cl)c2=O)c1 [Compound 48, 3-(3-acetylphenoxy)-5-chloro-4H--1,2,6-thiadiazin-4-one]	64	24	64	76	4 (80-100)	4 (80-100)	2 (40-60)	2 (40-60)	0
CC(=O)c1ccccc1Oc1nsnc(Cl)c1=O [Compound 49, 3-(2-acetylphenoxy)-5-chloro-4H--1,2,6-thiadiazin-4-one]	9	24	42	64	4 (80-100)	4 (80-100)	2 (40-60)	2 (40-60)	0
O=C(O)c1ccc(Oc2nsnc(Cl)c2=O)cc1 [Compound 50, 3-(4-carboxyphenoxy)-5-chloro-4H--1,2,6-thiadiazin-4-one]	42	0	13	47	4 (80-100)	4 (80-100)	4 (80-100)	2 (40-60)	0
COc1ccc(Cl)c(Oc2nsnc(Cl)c2=O)c1 [Compound 51, 3-chloro-5-[(2-chloro-5-methoxy)phenoxy]-4H--1,2,6-thiadiazin-4-one]	20	56	82	100	4 (80-100)	4 (80-100)	0 (0-10)	0 (0-10)	0
COc1cc(Cl)cc(Oc2nsnc(Cl)c2=O)c1 [Compound 52, 3-chloro-5-[(3-chloro-5-methoxy)phenoxy]-4H--1,2,6-thiadiazin-4-one]	33	64	64	100	4 (80-100)	2 (40-60)	0 (0-10)	0 (0-10)	75
O=c1c(Cl)nsnc1Oc1ccc([N+](=O)[O-])cc1Cl [Compound 53, 3-chloro-5-(2-chloro-4-nitrophenoxy)-4H--1,2,6-thiadiazin-4-one]	53	53	76	76	2 (40-60)	1 (10-40)	0 (0-10)	0 (0-10)	0
Cc1cc(Oc2nsnc(Cl)c2=O)ccc1Cl [Compound 54, 3-chloro-5-(4-chloro-3-methylphenoxy)-4H--1,2,6-thiadiazin-4-one]	38	42	42	71	2 (40-60)	0 (0-10)	0 (0-10)	0 (0-10)	0
